# Article PMC4965013, “Open Source Drug Discovery with the Malaria Box Compound Collection for Neglected Diseases and Beyond” (PLoS Pathogens, 2016)
# Read-outs that look alike come from different tables or passages of the source.
# Key:
# T. b. brucei Squib 427 = test: T. b. brucei growth Maes; format: cell-based, Trypanosoma brucei brucei; details: non-toxic, positive in all T. brucei screens
# T. muris L1 larvae = T. muris L1 larvae J. Keiser; format: cell-based, Trichuris muris; details: 100µM
# A. ceylanicum L3 larvae = A. ceylanicum L3 larvae J. Keiser; format: cell-based, Ancylostoma ceylanicum; details: 200µM
# Staphylococcus aureus = test: S. aureus agar spot / MIC Baker; details: read-out: Minimum Inhibitory Concentrations (MIC) S. aureus
# [1] = test system: Acinetobacter baumannii ATCC 19606; test: A. baumannii agar spot / MIC Baker; details: ATCC19606, read-out: Minimum Inhibitory Concentrations (MIC) A. baumanii
# [2] = test system: P. falciparum 3D7, HB3, Dd2, W2, K1, FCR3; test: Asexual EC50 image assay, six strains, Ayong; format: cell-based; details: Plasmodium falciparum
# P. falciparum FCR3 = test: FCR3 SYBR Green I assay Horii; format: cell-based; details: Plasmodium falciparum, FCR3, 72 h; read-out: P. falciparum FCR3 asexual blood stage IC50 Horii
# Description: Column T: Horii group (data presented first in this paper). IC50 against asexual blood stage P. falciparum FCR3. Methods: For measurement of anti-Plasmodium activities, P. falciparum FCR3 strain was cultured in the RPMI 1640 medium supplemented with 10% human type A serum from in-house volunteers at 37°C, 5% O2 and 5% CO2 (0.5% parasitemia and 2% hematocrit) for 72 h in the presence of the compounds (DMSO final concentration, 0.25%). The growth inhibition of P. falciparum was determined using a SYBR Green I assay. Lysis buffer (20 mM Tris (pH 7.5), 5 mM EDTA, 0.008% (w/v) saponin and 0.08% (v/v) Triton X-100) containing SYBR Green I was added to each well and incubated at room temperature and dark condition for 1-5 hours. After the incubation, amounts of parasite DNA were measured as fluorescence at 485 nm of excitation and 530 nm of emission. An unpublished antimalarial compound was used as positive control in the assay.
# [3] = test system: P. falciparum NF54Pfs16 gametocytes stage IV-V; details: cited from earlier work
# P. falciparum 3D7 or K1 = test: Asexual Blood Stage Imaging Assay (DAPI) V. Avery; format: cell-based; details: Plasmodium falciparum
# [4] = test system: P. falciparum NF54 GFP-Pfs16 gametocytes stage I-III; details: ref [64]; read-out: gametocyte early stage (I-III) GFP-MTR EC50; cited from earlier work
# [5] = test system: P. falciparum NF54 GFP-Pfs16 gametocytes stage IV-V; details: ref [64]; read-out: gametocyte late stage (IV-V) GFP-MTR EC50; cited from earlier work
# [6] = test system: P. falciparum NF54Pfs16 gametocytes stage I-III; details: ref [61]; read-out: gametocyte early stage (I-III) luciferase EC50; cited from earlier work
# P. falciparum HB3 = test: Stage-specificity / mitochondrial integrity image assay Ayong; format: cell-based; details: 10µM
# [7] = test system: Naegleria fowleri trophozoites; test: Naegleria fowleri CellTiter-Glo; format: cell-based; details: Naegleria fowleri
# Source text: Columns CY-CZ: Kyle group (data presented first in this paper). Naegleria fowleri trophozoite growth inhibition. Methods: The CellTiter-Glo (CTG) 2.0 luminescent assay is a quantitative assay that assesses the presence of cellular ATP in lysed cells, displaying an output in Relative Light Units (RLU’s). This was previously standardised, for the growth and development of Naegleria fowleri trophozoites in-vitro to assess drug susceptibility on this parasite. […] These included two drug-like molecules MMV665807 (St. Jude’s Children’s Hospital) and MMV665979 (The Genomics Institute of the Novartis Research Foundation - GNF) and two Probe-like molecules, MMV006203 (GNF) & MMV006172 (GNF; GlaxoSmithKline - GSK). […] However, these Malaria Box compounds were all toxic to zebrafish and mammalian cells.
# P. falciparum Dd2 = test: Malaria Sybr Green I Fluorescence assay Dd2 Horrocks; format: cell-based; details: Plasmodium falciparum, DD2, 48 h; read-out: P. falciparum Dd2 asexual blood stage EC50 Horrocks
# Method in brief: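 Dd2 asexual parasites started at 2% trophozoite-stage parasitaemia and 2% hematocrit; growth read by SYBR Green I fluorescence after 48 h. IC50 values taken from log dose-response curves.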
# P. falciparum 3D7 = test: [3H]-hypoxanthine growth inhibition, modified HCO3- or O2; format: cell-based; details: for IC50: Plasmodium falciparum
# P. falciparum = test: EC50 listed in S2 Table Metabolomics (used to set the concentration tested); format: cell-based; details: Plasmodium falciparum; EC50 used for Factor_XEC50 in metabolomics; read-out: EC50_nM
# [8] = test system: P. falciparum 3D7 trophozoites; test: Metabolomic fingerprint profiling LC-MS; format: cell-based, Plasmodium falciparum; parameters: UDP-D-glucose / ADP-D-glucose: unit not given here
# [9] = read-out: P. falciparum 3D7 asexual blood stage EC50 (Image) V. Avery
# [10] = read-out: P. falciparum K1 asexual blood stage EC50 (Image) V. Avery
# [11] = metabolite level change after treatment
compound,measurement,setting,value
CN(C)CCCNCc1ccc(-c2ccc(F)c(Cl)c2)o1 [MMV020505],Selectivity Index T. brucei screens,T. b. brucei Squib 427,> 10
ivermectin [reference compound],T. muris positive control effect,T. muris L1 larvae,caused death of all worms
same,A. ceylanicum positive control effect,A. ceylanicum L3 larvae,caused death of all worms
O=C(Nc1ccc(F)c(Cl)c1)Nc1ccc(Cl)c(Cl)c1 [MMV665953],MIC,Staphylococcus aureus,1.25 to 5 µM
same,MIC,[1],1.25 to 5 µM
"C[C@@H]1CC[C@H]2[C@@H](C)C(=O)O[C@@H]3O[C@@]4(C)CC[C@@H]1[C@]32OO4 [Artemisinin, reference compound]",EC50,[2]; read-out: P. falciparum 3D7 asexual blood stage EC50 (Image) Ayong,11.7 ± 1.4 nM
same,EC50,[2]; read-out: P. falciparum Dd2 asexual blood stage EC50 (Image) Ayong,5.3 ± 1.2 nM
same,EC50,[2]; read-out: P. falciparum FCR3 asexual blood stage EC50 (Image) Ayong,5 ± 0.4 nM
same,EC50,[2]; read-out: P. falciparum HB3 asexual blood stage EC50 (Image) Ayong,8.6 ± 1.2 nM
same,EC50,[2]; read-out: P. falciparum K1 asexual blood stage EC50 (Image) Ayong,3.5 ± 0.4 nM
same,EC50,[2]; read-out: P. falciparum W2 asexual blood stage EC50 (Image) Ayong,5.7 ± 0.5 nM
same,IC50,P. falciparum FCR3,47 nM
same,EC50,"[3]; ref [62], read-out: gametocyte late stage (IV-V) luciferase EC50",26 nM
same,EC50,P. falciparum 3D7 or K1; [9],1 nM
same,EC50,P. falciparum 3D7 or K1; [10],1 nM
same,EC50,[4],1 nM
same,EC50,[5],5 nM
same,EC50,[6],13 nM
same,"Effects on asexual life cycle progression (treatment at ER, LR, T, S; merozoites; mitochondrial integrity)",P. falciparum HB3,LR-X-S-X-o-o
O=C(Nc1cccc(C(F)(F)F)c1)c1cc(Cl)ccc1O [MMV665807],MIC,Staphylococcus aureus,1.25 to 5 µM
same,MIC,[1],1.25 to 5 µM
same,EC50,[7],1090 nM
"CCN(CC)CCCC(C)Nc1ccnc2cc(Cl)ccc12 (stereo not shown) [Chloroquine, reference compound]",EC50,P. falciparum Dd2,209 nM
same,IC50,P. falciparum FCR3,125 nM
same,IC50,"[3]; ref [69], read-out: late stage gametocyte luciferase, no inhibition up to",> 10000 nM
same,EC50,P. falciparum 3D7 or K1; [9],3 nM
same,EC50,P. falciparum 3D7 or K1; [10],199 nM
same,fold change (IC50normal/ IC50hypoxia),P. falciparum 3D7,1.6
same,fold change (IC50reduced/IC50normal),P. falciparum 3D7,2.3
same,IC50,"P. falciparum 3D7; 3D7, read-out: P. falciparum 3D7 IC50 1% O2, 1% O2 hypoxia",7 nM
same,IC50,"P. falciparum 3D7; 3D7, read-out: P. falciparum 3D7 IC50 5% O2",11 nM
same,IC50,"P. falciparum 3D7; 3D7, read-out: P. falciparum 3D7 IC50 HCO3- (2g/L), standard media",16 nM
same,IC50,"P. falciparum 3D7; 3D7, HCO3- reduced media, read-out: P. falciparum 3D7 IC50 HCO3- reduced",36 nM
same,EC50,[6],77 nM
same,"Effects on asexual life cycle progression (treatment at ER, LR, T, S; merozoites; mitochondrial integrity)",P. falciparum HB3,LR-X-S-o-o-o
CCN1CCN(Cc2ccc(NC(=O)c3cc4ccc5cccnc5c4[nH]3)cc2)CC1 [MMV020548],EC50,P. falciparum,361 nM
same,Acetyllysine,"[8]; S2 Table Metabolomics, metabolite Acetyllysine",-1.074
same,N-acetyl-L-ornithine,"[8]; S2 Table Metabolomics, metabolite N-acetyl-L-ornithine",-0.7002
same,N-carbamoyl-L-aspartate,"[8]; S2 Table Metabolomics, metabolite N-carbamoyl-L-aspartate",0.01627
same,NADPH,"[8]; S2 Table Metabolomics, metabolite NADPH",-0.7588
same,dAMP,"[8]; S2 Table Metabolomics, metabolite dAMP",0.7039
same,dCMP,"[8]; S2 Table Metabolomics, metabolite dCMP",0.2246
same,dTDP,"[8]; S2 Table Metabolomics, metabolite dTDP",0.1022
same,dTMP,"[8]; S2 Table Metabolomics, metabolite dTMP",0.01221
same,dTTP,"[8]; S2 Table Metabolomics, metabolite dTTP",-0.4268
same,dihydroorotate,"[8]; S2 Table Metabolomics, metabolite dihydroorotate",0.1148
same,orotate,"[8]; S2 Table Metabolomics, metabolite orotate",0.2392
same,DLH,"[8]; S2 Table Metabolomics, peptide DLH",-1.531
same,DLS/SDL/SID,"[8]; S2 Table Metabolomics, peptide DLS/SDL/SID",-1.1
same,PD,"[8]; S2 Table Metabolomics, peptide PD",-1.147
same,PEE,"[8]; S2 Table Metabolomics, peptide PEE",-0.7652
same,PVNF,"[8]; S2 Table Metabolomics, peptide PVNF",-1.327
same,3-phosphoglycerate,"[8]; metabolite 3-phosphoglycerate, S2 Table Metabolomics",-0.1406
same,ADP-D-glucose,"[8]; metabolite ADP-D-glucose, S2 Table Metabolomics",0.03533
same,ATP,"[8]; metabolite ATP, S2 Table Metabolomics",-0.3247
same,CDP,"[8]; metabolite CDP, S2 Table Metabolomics, change in metabolite level after compound treatment",-0.06734
same,D-sedoheptulose-1/7-phosphate,"[8]; metabolite D-sedoheptulose-1/7-phosphate, S2 Table Metabolomics, change in metabolite level after compound treatment",-0.2201
same,FAD,"[8]; metabolite FAD, S2 Table Metabolomics",-0.1695
same,GMP,"[8]; metabolite GMP, S2 Table Metabolomics, change in metabolite level after compound treatment",0.03987
same,NAD+,"[8]; metabolite NAD+, S2 Table Metabolomics",-0.004207
same,NADP+,"[8]; metabolite NADP+, S2 Table Metabolomics",-0.07599
same,Octoluse Bisphosphate,"[8]; metabolite Octoluse Bisphosphate, S2 Table Metabolomics, change in metabolite level after compound treatment",-0.5083
same,Pyroglutamic acid,"[8]; metabolite Pyroglutamic acid, S2 Table Metabolomics",0.8773
same,UDP-D-glucose,"[8]; metabolite UDP-D-glucose, S2 Table Metabolomics",-0.04378
same,UDP-D-glucuronate,"[8]; metabolite UDP-D-glucuronate, S2 Table Metabolomics",-0.2395
same,UDP-N-acetyl-glucosamine,"[8]; metabolite UDP-N-acetyl-glucosamine, S2 Table Metabolomics",-0.0477
same,UDP,"[8]; metabolite UDP, S2 Table Metabolomics, change in metabolite level after compound treatment",-0.1277
same,UMP,"[8]; metabolite UMP, S2 Table Metabolomics, change in metabolite level after compound treatment",-0.04731
same,UTP,"[8]; metabolite UTP, S2 Table Metabolomics, change in metabolite level after compound treatment",-0.476
same,a-ketoglutarate,"[8]; metabolite a-ketoglutarate, S2 Table Metabolomics",0.2925
same,citrate/isocitrate,"[8]; metabolite citrate/isocitrate, S2 Table Metabolomics, change in metabolite level after compound treatment",0.7028
same,cytidine,"[8]; metabolite cytidine, S2 Table Metabolomics",0.2393
same,dATP,"[8]; metabolite dATP, S2 Table Metabolomics",-0.2064
same,dGMP/AMP,"[8]; metabolite dGMP/AMP, S2 Table Metabolomics, change in metabolite level after compound treatment",0.2962
same,fumarate,"[8]; metabolite fumarate, S2 Table Metabolomics, change in metabolite level after compound treatment",-0.1605
same,glucose-1/6-phosphate,"[8]; metabolite glucose-1/6-phosphate, S2 Table Metabolomics, change in metabolite level after compound treatment",-0.1021
same,glycerate,"[8]; metabolite glycerate, S2 Table Metabolomics, change in metabolite level after compound treatment",0.2926
same,guanine,"[8]; metabolite guanine, S2 Table Metabolomics, change in metabolite level after compound treatment",0.4901
same,guanosine,"[8]; metabolite guanosine, S2 Table Metabolomics, change in metabolite level after compound treatment",0.1417
same,hypoxanthine,"[8]; metabolite hypoxanthine, S2 Table Metabolomics",0.9061
same,indole,"[8]; metabolite indole, S2 Table Metabolomics",0.3876
same,inosine,"[8]; metabolite inosine, S2 Table Metabolomics, change in metabolite level after compound treatment",0.524
same,2_3-Diphosphoglyceric acid,[8]; [11],-0.4996
same,4-phosphopantothenate,[8]; [11],0.07924
same,6-phospho-D-gluconate,[8]; [11],-0.3745
same,FMN,[8]; [11],-0.06134
same,IMP,[8]; [11],0.03526
same,Pyrophosphate,[8]; [11],-0.5624
same,Sedoheptoluse bisphosphate,[8]; [11],-0.2788
same,cyclic-AMP,[8]; [11],-0.1988
same,glutathione disulfide,[8]; [11],-0.4809
same,lactate,[8]; [11],0.3196
same,myo-inositol,[8]; [11],-0.02428
same,nicotinate,"[8]; metabolite nicotinate, S2 Table Metabolomics",0.6741
same,ornithine,"[8]; metabolite ornithine, S2 Table Metabolomics",-0.3153
same,phosphoenolpyruvate,"[8]; metabolite phosphoenolpyruvate, S2 Table Metabolomics",0.09829
same,pyruvate,"[8]; metabolite pyruvate, S2 Table Metabolomics, change in metabolite level after compound treatment",0.858
same,ribose-phosphate,"[8]; metabolite ribose-phosphate, S2 Table Metabolomics",-0.1246
same,sarcosine/alanine,"[8]; metabolite sarcosine/alanine, S2 Table Metabolomics, change in metabolite level after compound treatment",0.05828
same,sn-glycerol-3-phosphate,"[8]; metabolite sn-glycerol-3-phosphate, S2 Table Metabolomics",-0.07501
same,succinate/methylmalonic acid,"[8]; metabolite succinate/methylmalonic acid, S2 Table Metabolomics, change in metabolite level after compound treatment",-0.07231
same,uridine,"[8]; metabolite uridine, S2 Table Metabolomics, change in metabolite level after compound treatment",0.7812
same,xanthosine,"[8]; metabolite xanthosine, S2 Table Metabolomics, change in metabolite level after compound treatment",0.03293
same,Selectivity Index T. brucei screens,T. b. brucei Squib 427,> 10
"c1ccc([C@H]2CN3CCSC3=N2)cc1 [Levamisole, reference compound]",T. muris positive control effect,T. muris L1 larvae,caused death of all worms
same,A. ceylanicum positive control effect,A. ceylanicum L3 larvae,caused death of all worms
